Measured values taken from ChEMBL document CHEMBL3137386, “DNDi T. cruzi fenarimol series dataset from which preclinical candidate EPL-BS1246 was identified (see also related datasets CHEMBL2448688 and CHEMBL3137440)”.
Converted amounts (≈) assume the structure as drawn. “And” between values parts separate entries of the source, which are not always exact repeats. Identical values can stand only once.

Key:
Trypanosoma cruzi [1] = experiment: (§1) DNDI: Chagas in vitro; format: functional, Tulahuen C4 (LacZ)
[2] = DNDI: Lipophilicity (gLogD) at pH 3; format: physicochemical; details: buffer
[3] = system: Trypanosoma brucei rhodesiense; experiment: DNDI: HAT in vitro; format: functional, organism-based; details: ATCC 30027
[4] = (§2) DNDI: Cytotoxicity against L-6 rat myoblasts from skeletal muscle; format: toxicity, cell-based, Muscle tissue, L6; details: rat, L6 rat skeletal muscle myoblasts
L6 = experiment: as §2; format: toxicity, cell-based, Muscle tissue; details: l6
Cytochrome P450 3A4 [5] = molecular target: T1, Cytochrome P450 3A4 (Homo sapiens, UniProt P08684); experiment: (§3) DNDI: CYP Inhibition; format: ADME
Cytochrome P450 3A4 [6] = molecular target: T1, Cytochrome P450 3A4; experiment: as §3; format: ADME; remark: listed apart in the source
[7] = DNDI: Solubility in 0.01M HCl at pH 2 determined by nephelometry; format: physicochemical; details: for solubility kinetic: 0.01 M HCl
[8] = DNDI: Metabolism; format: ADME, Microsome; details: human, microsomes; for hepatic extraction ratio: read-out: EH
Trypanosoma cruzi [9] = experiment: as §1; format: functional, organism-based, Tulahuen C4 (LacZ)
[10] = DNDI: Lipophilicity (gLogD) at pH 7.4; format: physicochemical; details: buffer
[11] = DNDI: Solubility in phosphate buffer at pH 6.5 determined by nephelometry; format: physicochemical
[12] = Trypanosoma cruzi, Tulahuen C4 (LacZ)

T1 sequence (P08684 whole entry): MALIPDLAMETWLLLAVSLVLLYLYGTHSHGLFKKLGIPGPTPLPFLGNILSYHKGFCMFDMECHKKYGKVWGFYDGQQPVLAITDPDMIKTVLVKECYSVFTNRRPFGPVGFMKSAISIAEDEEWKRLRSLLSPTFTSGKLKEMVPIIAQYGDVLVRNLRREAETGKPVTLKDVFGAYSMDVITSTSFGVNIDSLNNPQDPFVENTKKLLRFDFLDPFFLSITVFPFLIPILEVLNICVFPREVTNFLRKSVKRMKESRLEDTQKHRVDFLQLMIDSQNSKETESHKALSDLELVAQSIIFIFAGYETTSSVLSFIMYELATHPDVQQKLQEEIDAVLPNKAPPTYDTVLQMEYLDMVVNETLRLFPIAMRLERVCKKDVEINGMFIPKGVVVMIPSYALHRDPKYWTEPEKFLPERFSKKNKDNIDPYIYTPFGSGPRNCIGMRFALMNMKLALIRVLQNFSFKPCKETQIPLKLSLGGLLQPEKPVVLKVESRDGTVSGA

Row | SMILES | IC90 (Trypanosoma cruzi [1]) | chromatographic logD [2] | IC50 [3] [µM] | IC50 (Cytochrome P450 3A4 [5]) [µM] | IC50 (Cytochrome P450 3A4 [6]) [µM] | solubility kinetic [7] [µg/mL] | Kinetic ([7]; buffer) [µg/mL] | EH [8] | half-life [8] [min] | microsomal CLint [8] [µL/min/mg] | t (1 / 2) [8] | hepatic extraction ratio [8] | IC50 (Trypanosoma cruzi [9]) | chromatographic logD [10] | IC90 (Trypanosoma cruzi [1]; [12]) [µM] | IC50 (Trypanosoma cruzi [9]; [12]) [µM] | solubility kinetic [11] [µg/mL] | IC50 [4] [µM] | IC50 (L6) [µM] | Clint [8]
1 | CC(C)(C)OC(=O)N1CCN(C(=O)C(c2ccc(C#N)cc2)c2cccnc2)CC1 (stereo not drawn) | – | – | > 10 | – | – | – | – | – | – | – | – | – | – | – | > 0.091 | 0.066 | – | > 100 | – | –
2 | CS(=O)(=O)c1ccc(N2CCN(C(=O)C(c3ccc(Cl)cc3)c3cncnc3)CC2)cc1 (stereo not drawn) | – | 2.6 | > 10 | – | > 20 | 25 (≈ 53.1 µM) | – | 0.69 and 0.66 | 50 | – | 25 min and 43 min | 0.79 | 0.0635 µM and > 0.1 µM | 2.6 | > 0.1 | 0.0783 | 6.3 (≈ 13.4 µM) | > 100 | – | 34 µL/min/mg and 69 µL/min/mg and 40 µL/min/mg
3 | O=C(C(c1ccc(Cl)cc1)c1cncnc1)N1CCN(c2ccc(C(F)(F)F)nc2)CC1 (stereo not drawn) | – | 3.4 | > 10 | – | > 20 | 12.5 (≈ 27.1 µM) | – | – | 31 | 56 | – | 0.76 | – | 3.3 | > 0.1 | 0.253 | 12.5 (≈ 27.1 µM) | > 100 | – | –
4 | O=C(C(c1ccc(Cl)cc1)c1cncnc1)N1CCN(c2ccc(C(F)(F)F)cn2)CC1 (stereo not drawn) | – | 3.9 | > 10 | – | 18 | 50 (≈ 108 µM) | – | – | 23 | 76 | – | 0.81 | – | 3.9 | > 0.1 | 0.161 | 6.3 (≈ 13.6 µM) | 52.5 | – | –
5 | O=C(C(c1ccc(Cl)cc1)c1cncnc1)N1CCN(c2ccc(C(F)(F)F)cc2)CC1 (stereo not drawn) | – | 4.2 | > 10 | – | 20 | 3.1 (≈ 6.73 µM) | – | – | 30 | 59 | – | 0.77 | – | 4.2 | > 0.1 | 0.118 | 3.1 (≈ 6.73 µM) | 51.3 | – | –
6 | O=C(c1ccc(Cl)cc1)N1CCN(C(=O)C(c2ccc(Cl)cc2)c2cccnc2)CC1 (stereo not drawn) | – | – | > 10 | – | – | – | – | – | – | – | – | – | – | – | > 0.1 | 0.022 | – | > 100 | – | –
7 | O=C(C(c1ccc(Cl)cc1)c1cccnc1)N1CCN(Cc2ccccc2C(F)(F)F)CC1 (stereo not drawn) | – | – | > 10 | – | 15 | – | – | – | 4 | 460 | – | 0.96 | – | – | > 0.1 | > 0.1 | – | 54.2 | – | –

Further lines, with some results ahead:

Row | IC90 (Trypanosoma cruzi [1]) | chromatographic logD [2] | IC50 [3] [µM] | IC50 (Cytochrome P450 3A4 [5]) [µM] | IC50 (Cytochrome P450 3A4 [6]) [µM] | solubility kinetic [7] [µg/mL] | Kinetic ([7]; buffer) [µg/mL] | EH [8] | half-life [8] [min] | microsomal CLint [8] [µL/min/mg] | t (1 / 2) [8] | hepatic extraction ratio [8] | IC50 (Trypanosoma cruzi [9]) | chromatographic logD [10] | IC90 (Trypanosoma cruzi [1]; [12]) [µM] | IC50 (Trypanosoma cruzi [9]; [12]) [µM] | solubility kinetic [11] [µg/mL] | SMILES | IC50 [4] [µM] | IC50 (L6) [µM] | Clint [8]
8 | > 0.1 µM and 0.401 µM | 3.8 | > 10 | 6.6 | > 20 | > 100 | 25 | 0.61 and 0.63 | 41 | 42 | 63 min and 57 min | 0.7 | – | – | – | – | – | O=C(C(c1ccc(Cl)cc1)c1cccnc1)N1CCN(c2ccc(C(F)(F)F)cn2)CC1 (stereo not drawn) | 57 | 59.3 | 28 µL/min/mg and 30 µL/min/mg
9 | 0.0565 µM and 0.0465 µM and > 0.1 µM | 3.1 | > 10 | – | > 20 | > 100 | – | 0.56 and 0.54 | 60 | 29 | 83 min and 77 min | 0.62 | 0.023 µM and 0.012 µM and > 0.1 µM | – | – | – | – | N#Cc1ccc(C(C(=O)N2CCN(c3ccc(C(F)(F)F)cn3)CC2)c2cccnc2)cc1 (stereo not drawn) | > 100 | 78.7 | 21 µL/min/mg and 23 µL/min/mg
10 | 0.214 µM and > 0.1 µM | 2.3 | > 10 | 7.1 | 19 | 25 (≈ 53.2 µM) | – | 0.75 and 0.68 | – | – | 21 min and 33 min and 46 min | 0.82 | – | 2.9 | – | – | – | CS(=O)(=O)c1ccc(N2CCN(C(=O)C(c3ccc(Cl)cc3)c3cccnc3)CC2)cc1 (stereo not drawn) | > 100 | 61.5 | 84 µL/min/mg and 53 µL/min/mg and 38 µL/min/mg
11 | – | – | > 10 | – | – | – | – | – | – | – | – | – | – | – | 0.029 | 0.018 | – | O=S(=O)(Cc1ccccc1)Nc1cnccc1N1CCN(c2ccc(C(F)(F)F)cc2)CC1 | > 100 | – | –
